How the values were obtained:
Assay type in all cases: in vivo
[1] = test system: nightshade (eastern black nightshade, Solanum ptycanthum); assay: Test C postemergence greenhouse test; conditions: scale 0 to 100
Excerpt: (§1) Seeds of plant species selected from blackgrass (Alopecurus myosuroides), ryegrass, Italian (Lolium multiflorum), wheat, winter (winter wheat, Triticum aestivum), galium (catchweed bedstraw, Galium aparine), corn (Zea mays), crabgrass, large (Digitaria sanguinalis), foxtail, giant (Setaria faberii), johnsongrass (Sorghum halepense), lambsquarters (Chenopodium album), morningglory (Ipomoea coccinea), nutsedge, yellow (Cyperus esculentus), pigweed (Amaranthus retroflexus), ragweed (common ragweed, Ambrosia elatior), soybean (Glycine max), barnyardgrass (Echinochloa crus-galli), oilseed rape (Brassica napus), waterhemp (common waterhemp, Amaranthus rudis), pigweed, palmer (Amaranthus palmeri), kochia (Kochia scoparia), oat, wild (Avena fatua), surinam grass (Brachiaria decumbens), windgrass (Apera spica-venti), poinsettia, wild (Euphorbia heterophylla) and velvetleaf (Abutilon theophrasti) were planted into a silt loam soil and treated preemergence with test chemicals formulated in a non-phytotoxic solvent mixture which included a surfactant.
(§2) At the same time, plants selected from these crop and weed species and also chickweed (common chickweed, Stellaria media), buckwheat, wild (Polygonum convolvulus), mustard, wild (Sinapis arvensis), field poppy (Papaver rhoeas), field violet (Viola arvensis), nightshade (eastern black nightshade, Solanum ptycanthum), speedwell (bird's-eye speedwell, Veronica persica), horseweed (Conyza canadensis), cutleaf geranium (Geranium dissectum), and Canada thistle (Cirsium arvense) were planted in pots containing Redi-Earth® planting medium (Scotts Company, 14111 Scottslawn Road, Marysville, Ohio 43041) comprising spaghnum peat moss, vermiculite, wetting agent and starter nutrients and treated with postemergence applications of test chemicals formulated in the same manner. Plants ranged in height from 2 to 18 cm (1- to 4-leaf stage) for postemergence treatments. Treated plants and controls were maintained in a greenhouse for 13 to 21 d, after which time all species were compared to controls and visually evaluated. Plant response ratings, summarized in Table C-1 (postemergence) and C-2 (preemergence), are based on a scale of 0 to 100 where 0 is no effect and 100 is complete control. A dash (-) response means no test result.

[2] = test system: horseweed (Conyza canadensis); assay: Test C postemergence greenhouse test; conditions: scale 0 to 100
Excerpt: as §1, §2

[3] = test system: pigweed (Amaranthus retroflexus); assay: Test C pre-/postemergence greenhouse test; conditions: scale 0 to 100
Summary of the method: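 Test chemicals were formulated in a non-phytotoxic solvent mixture with surfactant and applied preemergence to seeds in silt loam soil or postemergence to plants of 2 to 18 cm in a peat/vermiculite medium. After 13 to 21 d in a greenhouse, response was visually scored from 0 (no effect) to 100 (complete control).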

[4] = test system: barnyardgrass (ECHCG; Echinochloa crus-galli); assay: Test G preemergence, mixtures of Cpd. No. 20 with (b15C1)
Excerpt: (§3) This test evaluated the effect of mixtures of Cpd. No. 20 with (b15C1) on several plant species. Seeds of plant species selected from corn (ZEAMD; Zea mays, cv. ‘Pioneer 1184’), soybean (GLXMA; Glycine max, cv. Pioneer 35T58), giant foxtail (SETFA; Setaria faberi), barnyardgrass (ECHCG; Echinochloa crus-galli), large crabgrass (DIGSA; Digitaria sanguinalis), palmer amaranth (AMAPA; Amaranthus palmeri), common waterhemp (AMATU; Amaranthus rudis), and common ragweed (AMBEL; Ambrosia artemisiifolia) were planted in pots containing Tama Silt Loam soil and treated preemergence with a directed soil spray using test chemicals formulated in a non-phytotoxic solvent mixture which included a surfactant.
(§4) Treated plants and untreated controls were maintained in a greenhouse for approximately 21 d, after which time all treated plants were compared to untreated controls and visually evaluated for injury. Plant response ratings, summarized in Table G, are based on a 0 to 100 scale where 0 is no effect and 100 is complete control. A dash (-) response means no test result. Test results are presented as a mean of 4 reps.

[5] = test system: common ragweed (AMBEL; Ambrosia artemisiifolia); assay: as above
Excerpt: as §3, §4

[6] = test system: common waterhemp (AMATU; Amaranthus rudis); assay: as above
Excerpt: as §3, §4

[7] = test system: corn (ZEAMD; Zea mays, cv. ‘Pioneer 1184’); assay: as above
Excerpt: as §3, §4

[8] = test system: giant foxtail (SETFA; Setaria faberi); assay: as above
Excerpt: as §3, §4

[9] = test system: large crabgrass (DIGSA; Digitaria sanguinalis); assay: as above
Excerpt: as §3, §4

[10] = test system: palmer amaranth (AMAPA; Amaranthus palmeri); assay: as above
Excerpt: as §3, §4

[11] = test system: soybean (GLXMA; Glycine max, cv. Pioneer 35T58); assay: as above
Excerpt: as §3, §4

Cc1cc(Cl)c2ccccc2c1-c1c(O)c(Cl)nn(C)c1=O [Cpd. No. 65]
Plant response rating, Nightshade ([1]; 16 g ai/ha): 90
Plant response rating, Nightshade ([1]; 31 g ai/ha): 100
Plant response rating, Nightshade ([1]; 62 g ai/ha): 100
Plant response rating, Nightshade ([1]; 125 g ai/ha): 100

Cc1ccc2ccc(F)cc2c1-c1c(O)c(Cl)nn(C)c1=O [Cpd. No. 21]
Plant response rating, Horseweed ([2]; 16 g ai/ha): 80
Plant response rating, Horseweed ([2]; 31 g ai/ha): 85
Plant response rating, Horseweed ([2]; 62 g ai/ha): 90
Plant response rating, Horseweed ([2]; 125 g ai/ha): 90

Cc1ccc2ccc(C)c(-c3c(O)c(Cl)nn(C)c3=O)c2c1 [Cpd. No. 20, 6-chloro-4-(2,7-dimethyl-1-naphthalenyl)-5-hydroxy-2-methyl-3(2H)-pyridazinone]
Plant response rating, Pigweed ([3]; Postemergence, 16 g ai/ha): 90
Plant response rating, Pigweed ([3]; Postemergence, 31 g ai/ha): 95
Plant response rating, Pigweed ([3]; Postemergence, 62 g ai/ha): 95
Plant response rating, Pigweed ([3]; Postemergence, 125 g ai/ha): 98
Plant response rating, Pigweed ([3]; Preemergence, 31 g ai/ha): 100
Plant response rating, Pigweed ([3]; Preemergence, 61 g ai/ha): 100
Plant response rating, Pigweed ([3]; Preemergence, 62 g ai/ha): 100
Plant response rating, Pigweed ([3]; Preemergence, 125 g ai/ha): 100
Plant response rating (0 to 100 scale) ([4]; Cpd. No. 20 16 g a.i./ha alone): 21
Plant response rating (0 to 100 scale) ([4]; Cpd. No. 20 31 g a.i./ha alone): 51
Plant response rating (0 to 100 scale) ([4]; Cpd. No. 20 62 g a.i./ha alone): 70
Plant response rating (0 to 100 scale) ([5]; Cpd. No. 20 16 g a.i./ha alone): 48
Plant response rating (0 to 100 scale) ([5]; Cpd. No. 20 31 g a.i./ha alone): 73
Plant response rating (0 to 100 scale) ([5]; Cpd. No. 20 62 g a.i./ha alone): 74
Plant response rating (0 to 100 scale) ([6]; Cpd. No. 20 16 g a.i./ha alone): 55
Plant response rating (0 to 100 scale) ([6]; Cpd. No. 20 31 g a.i./ha alone): 96
Plant response rating (0 to 100 scale) ([6]; Cpd. No. 20 62 g a.i./ha alone): 99
Plant response rating (0 to 100 scale) ([7]; Cpd. No. 20 16 g a.i./ha alone): 0
Plant response rating (0 to 100 scale) ([7]; Cpd. No. 20 31 g a.i./ha alone): 0
Plant response rating (0 to 100 scale) ([7]; Cpd. No. 20 62 g a.i./ha alone): 0
Plant response rating (0 to 100 scale) ([8]; Cpd. No. 20 16 g a.i./ha alone): 66
Plant response rating (0 to 100 scale) ([8]; Cpd. No. 20 31 g a.i./ha alone): 88
Plant response rating (0 to 100 scale) ([8]; Cpd. No. 20 62 g a.i./ha alone): 74
Plant response rating (0 to 100 scale) ([9]; Cpd. No. 20 16 g a.i./ha alone): 9
Plant response rating (0 to 100 scale) ([9]; Cpd. No. 20 31 g a.i./ha alone): 11
Plant response rating (0 to 100 scale) ([9]; Cpd. No. 20 62 g a.i./ha alone): 25
Plant response rating (0 to 100 scale) ([10]; Cpd. No. 20 16 g a.i./ha alone): 73
Plant response rating (0 to 100 scale) ([10]; Cpd. No. 20 31 g a.i./ha alone): 70
Plant response rating (0 to 100 scale) ([10]; Cpd. No. 20 62 g a.i./ha alone): 78
Plant response rating (0 to 100 scale) ([11]; Cpd. No. 20 16 g a.i./ha alone): 0
Plant response rating (0 to 100 scale) ([11]; Cpd. No. 20 31 g a.i./ha alone): 18
Plant response rating (0 to 100 scale) ([11]; Cpd. No. 20 62 g a.i./ha alone): 24
